Assay results as given in PMC9832530 (FASEB BioAdvances, 2022).

Biological target: T1, drFtsZ (FtsZWT) (Deinococcus radiodurans, UniProt Q9RWN5)
T1 sequence (Q9RWN5 1-371): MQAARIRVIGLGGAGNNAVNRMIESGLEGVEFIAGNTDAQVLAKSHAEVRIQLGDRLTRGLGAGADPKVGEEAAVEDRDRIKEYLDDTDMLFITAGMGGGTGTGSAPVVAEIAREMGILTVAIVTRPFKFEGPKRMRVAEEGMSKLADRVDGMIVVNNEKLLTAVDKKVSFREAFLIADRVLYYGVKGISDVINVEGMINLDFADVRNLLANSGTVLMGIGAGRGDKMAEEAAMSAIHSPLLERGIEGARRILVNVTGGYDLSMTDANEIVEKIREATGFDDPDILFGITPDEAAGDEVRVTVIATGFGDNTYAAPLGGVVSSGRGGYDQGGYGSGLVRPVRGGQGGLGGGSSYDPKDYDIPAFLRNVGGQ
Assay: GTPase, [alpha-32P]-GTP to GDP by TLC
Type: biochemical
Conditions: 20 mM Tris-HCl pH 7.5, 75 mM KCl, MgCl2, 37 °C, 20 min; labelled compound

Compound: Nc1nc2c(ncn2[C@@H]2O[C@H](COP(=O)(O)OP(=O)(O)OP(=O)(O)O)[C@@H](O)[C@H]2O)c(=O)[nH]1 [GTP]
- GTPase, [alpha-32P]-GTP to GDP by TLC: The GTPase activity of S235 and S335 mutants were estimated using thin‐layer chromatography
